Assays:
Assay type in all cases: functional
Homo sapiens [1] = experiment: Protection against community-acquired pneumonia in patient with pneumonia severity index-2 assessed as mortality at 500 mg administered once daily for 14 days
Homo sapiens [2] = experiment: Protection against community-acquired pneumonia in patient with pneumonia severity index-3 assessed as mortality at 500 mg administered once daily for 14 days
Homo sapiens [3] = experiment: Protection against community-acquired pneumonia in patient with pneumonia severity index-4 assessed as mortality at 500 mg administered once daily for 30 days
Homo sapiens [4] = experiment: Protection against community-acquired pneumonia in patient with pneumonia severity index-5 assessed as mortality at 500 mg administered once daily for 14 days
Homo sapiens [5] = experiment: Protection against community-acquired pneumonia in patient with pneumonia severity index-5 assessed as mortality at 500 mg administered once daily for 30 days
Homo sapiens [6] = experiment: Protection against community-acquired pneumonia in patient with pneumonia severity index-4 assessed as mortality at 500 mg administered once daily for 14 days
Homo sapiens [7] = experiment: Protection against community-acquired pneumonia in patient with pneumonia severity index-2 assessed as mortality at 500 mg administered once daily for 30 days
Homo sapiens [8] = experiment: Protection against community-acquired pneumonia in patient with pneumonia severity index-3 assessed as mortality at 500 mg administered once daily for 30 days

## C[C@H]1COc2c(N3CCN(C)CC3)c(F)cc3c(=O)c(C(=O)O)cn1c23.C[C@H]1COc2c(N3CCN(C)CC3)c(F)cc3c(=O)c(C(=O)O)cn1c23.O [LEVOFLOXACIN]
Homo sapiens [1]
  Activity: 0%
Homo sapiens [2]
  Activity: 2.1%
Homo sapiens [3]
  Activity: 5%
Homo sapiens [4]
  Activity: 26.8%
Homo sapiens [5]
  Activity: 36.6%
Homo sapiens [6]
  Activity: 4.2%
Homo sapiens [7]
  Activity: 0%
Homo sapiens [8]
  Activity: 6.3%

Source: ChEMBL document CHEMBL1138535, “Comparison of beta-lactam and macrolide combination therapy versus fluoroquinolone monotherapy in hospitalized Veterans Affairs patients with community-acquired pneumonia” (2007)
